The values that follow come from US20120082658A1, “Methods for the Treatment of Allergic Diseases” (VentiRx Pharmaceuticals, Inc., priority 2010, published 2012).

The experiment deals with human peripheral blood mononuclear cells (PBMCs). In words: Cytokine production in isolated human PBMCs. In kind it is cell-based. The note with it: for EC50: Homo sapiens, PBMC. The protocol: Preclinical studies were performed with VTX-378, the active pharmaceutical ingredient in VTX-1463. The specificity of VTX-378 for human TLR8 relative to other TLRs was assessed in transfected Human Embryonic Kidney 293 (HEK293) cells engineered to express individual TLRs (2-9) via transfection, and assessed using an NF-κB driven reporter system. […] The pharmacologic effects of VTX-378 were characterized in vitro using isolated human peripheral blood mononuclear cells (PBMCs).

Molecules are shown by their SMILES. Like-named read-outs stand apart in the source and are kept apart here.

Consider `CC(C)Cn1cnc2c(N)nc3ccccc3c21` [Imiquimod, imiquimod, reference compound], for which the EC50 (analyte IL-10, read-out: EC50, IL-10 production) worked out at 17 µM. Besides, for the setting “analyte IL-12p40, read-out: EC50, IL-12p40 production”, the EC50 stood at 0.27 µM. Also, where the note is “Imiquimod 25 uM”, the “Mean Mediator Level ± SEM, IL-10” value came out at 59 ± 24 pg/mL; the “Mean Mediator Level ± SEM, IL-12p40” value amounted to 10.2 ± 3.5 pg/mL; the “Mean Mediator Level ± SEM, IL-12p70” value stood at 0.6 ± 0.6 pg/mL.

For orientation: EC50 means the concentration needed to bring the measured effect to its halfway point.
